Experimental data taken from PubChem BioAssay AID2060495 (Molecular Pharmacology Branch, DTP, NCI, 2025).

System: 521955-158-R2-J5-PDC complex spheroid viability
Experiment: Anticancer human tumor 521955-158-R2-J5-PDC patient-derived pancreatic carcinoma cell line growth inhibition [GQUAD]
Details: for IC50: curve of first compound; for viability, T/C: stronger effect = lower value
Procedure, shortened: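 Viability of tumor cells grown as complex spheroids with endothelial and stromal cells, exposed to drug combinations. Top concentration at or near clinical Cmax (else 10 microM), diluted in half-log increments.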

[1] = second compound 0.0316 µM, first compound 0.0316 µM
[2] = second compound 0.0316 µM, first compound 0.1 µM
[3] = second compound 0.0316 µM, first compound 0.316 µM
[4] = second compound 0.0316 µM, first compound 1 µM
[5] = second compound 0.0316 µM, first compound 3.16 µM
[6] = second compound 0.0316 µM, first compound 10 µM
[7] = second compound 0.1 µM, first compound 0.0316 µM
[8] = second compound 0.1 µM, first compound 0.1 µM
[9] = second compound 0.1 µM, first compound 0.316 µM
[10] = second compound 0.1 µM, first compound 1 µM
[11] = second compound 0.1 µM, first compound 3.16 µM
[12] = second compound 0.1 µM, first compound 10 µM
[13] = second compound 0.316 µM, first compound 0.0316 µM
[14] = second compound 0.316 µM, first compound 0.1 µM
[15] = second compound 0.316 µM, first compound 0.316 µM
[16] = second compound 0.316 µM, first compound 1 µM
[17] = second compound 0.316 µM, first compound 3.16 µM
[18] = second compound 0.316 µM, first compound 10 µM
[19] = second compound 1 µM, first compound 0.0316 µM
[20] = second compound 1 µM, first compound 0.1 µM
[21] = second compound 1 µM, first compound 0.316 µM
[22] = second compound 1 µM, first compound 1 µM
[23] = second compound 1 µM, first compound 3.16 µM
[24] = second compound 1 µM, first compound 10 µM
[25] = second compound 3.16 µM, first compound 0.0316 µM
[26] = second compound 3.16 µM, first compound 0.1 µM
[27] = second compound 3.16 µM, first compound 0.316 µM
[28] = second compound 3.16 µM, first compound 1 µM
[29] = second compound 3.16 µM, first compound 3.16 µM
[30] = second compound 3.16 µM, first compound 10 µM
[31] = second compound 10 µM, first compound 0.0316 µM
[32] = second compound 10 µM, first compound 0.1 µM
[33] = second compound 10 µM, first compound 0.316 µM
[34] = second compound 10 µM, first compound 1 µM
[35] = second compound 10 µM, first compound 3.16 µM
[36] = second compound 10 µM, first compound 10 µM
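Note: spheroids exposed to agents for one week before reading.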
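Throughout, for viability, T/C: 100% = DMSO vehicle control viability.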

## C=CCn1c(=O)c2cnc(Nc3ccc(N4CCN(C)CC4)cc3)nc2n1-c1cccc(C(C)(C)O)n1 + Cc1cnc(CNC(=O)c2c(=O)c3ccc(N4CCCN(C)CC4)nc3n3c2sc2ccccc23)cn1
Second compound 0.0316 µM
  IC50: 77.1 nM
Second compound 0.1 µM
  IC50: 124 nM
Second compound 0.316 µM
  IC50: < 31.6 nM
Second compound 1 µM
  IC50: < 31.6 nM
Second compound 3.16 µM
  IC50: < 31.6 nM
Second compound 10 µM
  IC50: < 31.6 nM
[1]
  viability, T/C: 67%
[2]
  viability, T/C: 44.9%
[3]
  viability, T/C: 19.5%
[4]
  viability, T/C: 10%
[5]
  viability, T/C: 7.12%
[6]
  viability, T/C: 11.2%
[7]
  viability, T/C: 53.5%
[8]
  viability, T/C: 56%
[9]
  viability, T/C: 30.3%
[10]
  viability, T/C: 17.6%
[11]
  viability, T/C: 13.1%
[12]
  viability, T/C: 11.6%
[13]
  viability, T/C: 35.1%
[14]
  viability, T/C: 45.4%
[15]
  viability, T/C: 28.4%
[16]
  viability, T/C: 20.1%
[17]
  viability, T/C: 15.9%
[18]
  viability, T/C: 11.2%
[19]
  viability, T/C: 17.4%
[20]
  viability, T/C: 19.6%
[21]
  viability, T/C: 21.1%
[22]
  viability, T/C: 17.7%
[23]
  viability, T/C: 14.3%
[24]
  viability, T/C: 10.1%
[25]
  viability, T/C: 13.3%
[26]
  viability, T/C: 16.3%
[27]
  viability, T/C: 17.8%
[28]
  viability, T/C: 11.6%
[29]
  viability, T/C: 11.7%
[30]
  viability, T/C: 2.19%
[31]
  viability, T/C: 11.6%
[32]
  viability, T/C: 15%
[33]
  viability, T/C: 15.4%
[34]
  viability, T/C: 8.4%
[35]
  viability, T/C: 0.28%
[36]
  viability, T/C: 0.23%

## CC(C)(O)C1CCC(Nc2ccc3ncc(-c4cccc(C(F)(F)F)c4)n3n2)CC1 (stereo not drawn) + Cc1cnc(CNC(=O)c2c(=O)c3ccc(N4CCCN(C)CC4)nc3n3c2sc2ccccc23)cn1
Second compound 0.0316 µM
  IC50: 1680 nM
Second compound 0.1 µM
  IC50: 1200 nM
Second compound 0.316 µM
  IC50: < 31.6 nM
Second compound 1 µM
  IC50: < 31.6 nM
Second compound 3.16 µM
  IC50: < 31.6 nM
Second compound 10 µM
  IC50: < 31.6 nM
[1]
  viability, T/C: 79%
[2]
  viability, T/C: 64.6%
[3]
  viability, T/C: 90.4%
[4]
  viability, T/C: 106%
[5]
  viability, T/C: 6.53%
[6]
  viability, T/C: 7.58%
[7]
  viability, T/C: 57.4%
[8]
  viability, T/C: 57.8%
[9]
  viability, T/C: 56.5%
[10]
  viability, T/C: 58.6%
[11]
  viability, T/C: 9.19%
[12]
  viability, T/C: 8.3%
[13]
  viability, T/C: 36.9%
[14]
  viability, T/C: 30.2%
[15]
  viability, T/C: 34%
[16]
  viability, T/C: 31.8%
[17]
  viability, T/C: 7.87%
[18]
  viability, T/C: 8.39%
[19]
  viability, T/C: 18.4%
[20]
  viability, T/C: 21.1%
[21]
  viability, T/C: 16.7%
[22]
  viability, T/C: 22.3%
[23]
  viability, T/C: 0.25%
[24]
  viability, T/C: 1.56%
[25]
  viability, T/C: 18.8%
[26]
  viability, T/C: 16.6%
[27]
  viability, T/C: 17.7%
[28]
  viability, T/C: 15%
[29]
  viability, T/C: 0.12%
[30]
  viability, T/C: 0.12%
[31]
  viability, T/C: 9.8%
[32]
  viability, T/C: 14%
[33]
  viability, T/C: 10.7%
[34]
  viability, T/C: 8.62%
[35]
  viability, T/C: 0.21%
[36]
  viability, T/C: 0.23%

## COc1ncnc(C2CC2)c1-c1ncc2cnn(Cc3ccc(-c4nc(C(F)(F)F)cn4C(C)C)cc3)c2n1 + Cc1cnc(CNC(=O)c2c(=O)c3ccc(N4CCCN(C)CC4)nc3n3c2sc2ccccc23)cn1
Second compound 0.0316 µM
  IC50: > 10000 nM
Second compound 0.1 µM
  IC50: > 10000 nM
Second compound 0.316 µM
  IC50: < 31.6 nM
Second compound 1 µM
  IC50: < 31.6 nM
Second compound 3.16 µM
  IC50: < 31.6 nM
Second compound 10 µM
  IC50: < 31.6 nM
[1]
  viability, T/C: 92.4%
[2]
  viability, T/C: 73.3%
[3]
  viability, T/C: 96.7%
[4]
  viability, T/C: 71.9%
[5]
  viability, T/C: 94.3%
[6]
  viability, T/C: 85.5%
[7]
  viability, T/C: 58%
[8]
  viability, T/C: 58.6%
[9]
  viability, T/C: 53.1%
[10]
  viability, T/C: 55.9%
[11]
  viability, T/C: 57.2%
[12]
  viability, T/C: 55.2%
[13]
  viability, T/C: 30.3%
[14]
  viability, T/C: 31.6%
[15]
  viability, T/C: 31.4%
[16]
  viability, T/C: 31.5%
[17]
  viability, T/C: 28.1%
[18]
  viability, T/C: 25.6%
[19]
  viability, T/C: 19.3%
[20]
  viability, T/C: 17.7%
[21]
  viability, T/C: 17%
[22]
  viability, T/C: 17.4%
[23]
  viability, T/C: 18.8%
[24]
  viability, T/C: 16.6%
[25]
  viability, T/C: 14.5%
[26]
  viability, T/C: 14.3%
[27]
  viability, T/C: 16.4%
[28]
  viability, T/C: 13.2%
[29]
  viability, T/C: 13.7%
[30]
  viability, T/C: 12.8%
[31]
  viability, T/C: 13%
[32]
  viability, T/C: 11.2%
[33]
  viability, T/C: 9.95%
[34]
  viability, T/C: 13.9%
[35]
  viability, T/C: 6.73%
[36]
  viability, T/C: 6.37%

## Cc1[nH]c2ccccc2c1CCNCc1ccc(/C=C/C(=O)NO)cc1 + Cc1cnc(CNC(=O)c2c(=O)c3ccc(N4CCCN(C)CC4)nc3n3c2sc2ccccc23)cn1
Second compound 0.0316 µM
  IC50: 71.3 nM
Second compound 0.1 µM
  IC50: 35.1 nM
Second compound 0.316 µM
  IC50: < 0.999 nM
Second compound 1 µM
  IC50: < 0.999 nM
Second compound 3.16 µM
  IC50: < 0.999 nM
Second compound 10 µM
  IC50: < 0.999 nM
Second compound 0.0316 µM, first compound 0.000999 µM
  viability, T/C: 76.2%
Second compound 0.0316 µM, first compound 0.00316 µM
  viability, T/C: 66.1%
Second compound 0.0316 µM, first compound 0.00999 µM
  viability, T/C: 92.3%
[1]
  viability, T/C: 75.6%
Second compound 0.0316 µM, first compound 0.0999 µM
  viability, T/C: 39.2%
[3]
  viability, T/C: 5.94%
Second compound 0.1 µM, first compound 0.000999 µM
  viability, T/C: 64.7%
Second compound 0.1 µM, first compound 0.00316 µM
  viability, T/C: 57.7%
Second compound 0.1 µM, first compound 0.00999 µM
  viability, T/C: 57.1%
[7]
  viability, T/C: 54%
Second compound 0.1 µM, first compound 0.0999 µM
  viability, T/C: 33.2%
[9]
  viability, T/C: 2.12%
Second compound 0.316 µM, first compound 0.000999 µM
  viability, T/C: 26.8%
Second compound 0.316 µM, first compound 0.00316 µM
  viability, T/C: 31.2%
Second compound 0.316 µM, first compound 0.00999 µM
  viability, T/C: 34%
[13]
  viability, T/C: 37.1%
Second compound 0.316 µM, first compound 0.0999 µM
  viability, T/C: 26.6%
[15]
  viability, T/C: 1.88%
Second compound 1 µM, first compound 0.000999 µM
  viability, T/C: 16.8%
Second compound 1 µM, first compound 0.00316 µM
  viability, T/C: 21.2%
Second compound 1 µM, first compound 0.00999 µM
  viability, T/C: 18.5%
[19]
  viability, T/C: 20.1%
Second compound 1 µM, first compound 0.0999 µM
  viability, T/C: 18.6%
[21]
  viability, T/C: 0.1%
Second compound 3.16 µM, first compound 0.000999 µM
  viability, T/C: 12.1%
Second compound 3.16 µM, first compound 0.00316 µM
  viability, T/C: 14.4%
Second compound 3.16 µM, first compound 0.00999 µM
  viability, T/C: 14.7%
[25]
  viability, T/C: 13.9%
Second compound 3.16 µM, first compound 0.0999 µM
  viability, T/C: 6.38%
[27]
  viability, T/C: 0.11%
Second compound 10 µM, first compound 0.000999 µM
  viability, T/C: 9.65%
Second compound 10 µM, first compound 0.00316 µM
  viability, T/C: 11.8%
Second compound 10 µM, first compound 0.00999 µM
  viability, T/C: 14.8%
[31]
  viability, T/C: 13.8%
Second compound 10 µM, first compound 0.0999 µM
  viability, T/C: 5.03%
[33]
  viability, T/C: 0.18%
